Structures are written as SMILES.

The first experiment concerns the target histone deacetylase (HDAC Enzyme). The experiment is described as follows: Inhibition of Histone Deacetylase Enzymatic Activity (Boc-Lys(Ac)-AMC, Fluor-de-Lys developer). The format is biochemical. To be noted: Table 9; read-out: HDAC Inhibition (IC50 μM) HDAC Enzyme. The procedure: The following protocol is used to assay the compounds of the invention.
The mixture is pre-incubated for 5 minutes at room temperature. The reaction is started by bringing the temperature to 37° C. and adding 16 μl substrate. Total reaction volume is 50 μl.
In the Tables 8, 9 and 10, A≦[…]<B≦0.1 μM; 0.1 μM<C≦1 μM; and 1 μM<D≦10 μM.
For `O=C(NO)c1cnc(N2C[C@@H]3C[C@H]2CN3c2cccc(C(F)(F)F)c2)nc1` [N-hydroxy-2-((1S,4S)-5-(3-(trifluoromethyl)phenyl)-2,5-diazabicyclo[2.2.1]heptan-2-yl)pyrimidine-5-carboxamide], the IC50 was less than 0.05 µM. On to `O=C(NO)c1cnc(N2C[C@@H]3C[C@H]2CN3c2cccc(C(F)(F)F)c2)s1` [N-hydroxy-2-((1S,4S)-5-(3-(trifluoromethyl)phenyl)-2,5-diazabicyclo[2.2.1]heptan-2-yl)thiazole-5-carboxamide], for which the half-maximal inhibitory concentration (IC50) was less than 0.05 µM.

Take `O=C(NO)c1cnc(N2C[C@@H]3C[C@H]2CN3c2cccc(SC(F)(F)F)c2)nc1` [N-hydroxy-2-((1S,4S)-5-(3-(trifluoromethylthio)phenyl)-2,5-diazabicyclo[2.2.1]heptan-2-yl)pyrimidine-5-carboxamide]: the IC50 was less than 0.05 µM. Take `COc1cccc(N2C[C@@H]3C[C@H]2CN3c2ncc(C(=O)NO)cn2)c1` [N-hydroxy-2-((1S,4S)-5-(3-methoxyphenyl)-2,5-diazabicyclo[2.2.1]heptan-2-yl)pyrimidine-5-carboxamide]: the half-maximal inhibitory concentration (IC50) is less than 0.05 µM.

For the compound `O=C(NO)c1cnc(N2C[C@@H]3C[C@H]2CN3c2ccc(C(F)(F)F)cc2)nc1` [N-hydroxy-2-((1S,4S)-5-(4-(trifluoromethyl)phenyl)-2,5-diazabicyclo[2.2.1]heptan-2-yl)pyrimidine-5-carboxamide], the IC50 is less than 0.05 µM.

On to `O=C(NO)c1cnc(N2C[C@@H]3C[C@H]2CN3c2cc(C(F)(F)F)ccn2)nc1` [N-hydroxy-2-((1S,4S)-5-(4-(trifluoromethyl)pyridin-2-yl)-2,5-diazabicyclo[2.2.1]heptan-2-yl)pyrimidine-5-carboxamide], for which the IC50 was less than 0.05 µM. Same read-out and setting: the result for `O=C(NO)c1cnc(N2C[C@@H]3C[C@H]2CN3c2nccc(C(F)(F)F)n2)nc1` [N-hydroxy-2-((1S,4S)-5-(4-(trifluoromethyl)pyrimidin-2-yl)-2,5-diazabicyclo[2.2.1]heptan-2-yl)pyrimidine-5-carboxamide] reads less than 0.05 µM. Still for that read-out and setting: as for `O=C(NO)c1cnc(N2C[C@@H]3C[C@H]2CN3c2cncc(C(F)(F)F)c2)nc1` [N-hydroxy-2-((1S,4S)-5-(5-(trifluoromethyl)pyridin-3-yl)-2,5-diazabicyclo[2.2.1]heptan-2-yl)pyrimidine-5-carboxamide], the figure is less than 0.05 µM; as for `O=C(NO)c1cnc(N2C[C@@H]3C[C@H]2CN3c2cccc(C(F)(F)F)n2)nc1` [N-hydroxy-2-((1S,4S)-5-(6-(trifluoromethyl)pyridin-2-yl)-2,5-diazabicyclo[2.2.1]heptan-2-yl)pyrimidine-5-carboxamide], less than 0.05 µM.

Turning to `O=C(NO)c1cnc(N2C[C@@H]3C[C@H]2CN3C(=O)N2CCCC2)nc1` [N-hydroxy-2-((1S,4S)-5-(pyrrolidine-1-carbonyl)-2,5-diazabicyclo[2.2.1]heptan-2-yl)pyrimidine-5-carboxamide], the IC50 lay in the range of 0.05 to 0.1 µM. Still for that read-out and setting: as for `Cc1cccc(N2C[C@@H]3C[C@H]2CN3c2ncc(C(=O)NO)cn2)c1` [N-hydroxy-2-((1S,4S)-5-m-tolyl-2,5-diazabicyclo[2.2.1]heptan-2-yl)pyrimidine-5-carboxamide], the figure is less than 0.05 µM. On the same count and under the same terms, the result for `Cc1ccccc1N1C[C@@H]2C[C@H]1CN2c1ncc(C(=O)NO)cn1` [N-hydroxy-2-((1S,4S)-5-o-tolyl-2,5-diazabicyclo[2.2.1]heptan-2-yl)pyrimidine-5-carboxamide] reads 0.05 to 0.1 µM; that for `Cc1ccc(N2C[C@@H]3C[C@H]2CN3c2ncc(C(=O)NO)cn2)cc1` [N-hydroxy-2-((1S,4S)-5-p-tolyl-2,5-diazabicyclo[2.2.1]heptan-2-yl)pyrimidine-5-carboxamide], less than 0.05 µM. For `O=C(NO)c1cnc(N2C[C@@H]3C[C@H]2CN3c2ccccc2)nc1` [N-hydroxy-2-((1S,4S)-5-phenyl-2,5-diazabicyclo[2.2.1]heptan-2-yl)pyrimidine-5-carboxamide], the IC50 lay in the range of 0.05 to 0.1 µM. For `COc1cccc(N2CC3CC2CN3c2ccc(C(=O)NO)cc2)c1` (centres unmarked) [N-hydroxy-4-(5-(3-methoxyphenyl)-2,5-diazabicyclo[2.2.1]heptan-2-yl)benzamide], the IC50 was 0.1 to 1 µM. In the case of `Cc1cccc(N2CC3CC2CN3c2ccc(C(=O)NO)cc2)c1` (centres unmarked) [N-hydroxy-4-(5-m-tolyl-2,5-diazabicyclo[2.2.1]heptan-2-yl)benzamide], the concentration for half-maximal inhibition (IC50) lay in the range of 0.1 to 1 µM. The same measure, in the same setting: as for `O=C(NO)c1ccc(N2C[C@H]3C[C@@H]2CN3c2cc(C(F)(F)F)ccn2)cc1` [N-hydroxy-4-((1R,4R)-5-(4-(trifluoromethyl)pyridin-2-yl)-2,5-diazabicyclo[2.2.1]heptan-2-yl)benzamide], the figure is 1 to 10 µM; as for `Cc1cccc(N2C[C@H]3C[C@@H]2CN3c2ccc(C(=O)NO)cc2)c1` [N-hydroxy-4-((1R,4R)-5-m-tolyl-2,5-diazabicyclo[2.2.1]heptan-2-yl)benzamide], 0.1 to 1 µM; as for `O=C(NO)c1ccc(N2C[C@@H]3C[C@H]2CN3c2cccc(C(F)(F)F)c2)cc1` [N-hydroxy-4-((1S,4S)-5-(3-(trifluoromethyl)phenyl)-2,5-diazabicyclo[2.2.1]heptan-2-yl)benzamide], 0.1 to 1 µM. On the same count and under the same terms, the result for `O=C(NO)c1ccc(N2C[C@@H]3C[C@H]2CN3c2cc(C(F)(F)F)ccn2)cc1` [N-hydroxy-4-((1S,4S)-5-(4-(trifluoromethyl)pyridin-2-yl)-2,5-diazabicyclo[2.2.1]heptan-2-yl)benzamide] reads 0.1 to 1 µM. On the same count and under the same terms, the result for `Cc1ccc(N2C[C@@H]3C[C@H]2CN3c2ccc(C(=O)NO)cc2)cc1` [N-hydroxy-4-((1S,4S)-5-p-tolyl-2,5-diazabicyclo[2.2.1]heptan-2-yl)benzamide] reads 0.1 to 1 µM. Take `O=C(NO)c1cnc(N2C[C@@H]3C[C@H]2CN3c2cccc(C(F)(F)F)c2)cn1` [N-hydroxy-5-((1S,4S)-5-(3-(trifluoromethyl)phenyl)-2,5-diazabicyclo[2.2.1]heptan-2-yl)pyrazine-2-carboxamide]: the IC50 is 0.1 to 1 µM. For `Cc1ccc(N2CC3CC2CN3c2ccc(C(=O)NO)cn2)cc1` (centres unmarked) [N-hydroxy-6-(5-p-tolyl-2,5-diazabicyclo[2.2.1]heptan-2-yl)nicotinamide], the IC50 is less than 0.05 µM. Consider `O=C(NO)c1ccc(N2C[C@@H]3C[C@H]2CN3c2cccc(C(F)(F)F)c2)nn1` [N-hydroxy-6-((1S,4S)-5-(3-(trifluoromethyl)phenyl)-2,5-diazabicyclo[2.2.1]heptan-2-yl)pyridazine-3-carboxamide], for which the IC50 lay within 0.1 to 1 µM.

Still in this experiment, the particulars now being: Table 10; read-out: HDAC Inhibition (IC50 μM) HDAC Enzyme.
`CN1CCc2[nH]c3ccc(C(=O)NO)cc3c2C1` [N-hydroxy-2-methyl-2,3,4,5-tetrahydro-1H-pyrido[4,3-b]indole-8-carboxamide]: the IC50 lay within 1 to 10 µM.

As to `O=C(CCc1ccc(CN2C(=O)c3ccccc3Oc3ccccc32)cc1)NO` [N-hydroxy-3-(4-((11-oxodibenzo[b,f][1,4]oxazepin-10(11H)-yl)methyl)phenyl)propanamide], the IC50 fell in the range of 0.1 to 1 µM. Same read-out and setting: the result for `O=C(NO)c1ccc(C#CCN2C(=O)c3ccccc3Oc3ccccc32)cc1` [N-hydroxy-4-(3-(11-oxodibenzo[b,f][1,4]oxazepin-10(11H)-yl)prop-1-ynyl)benzamide] reads less than 0.05 µM. For `O=C(NO)c1ccc(CCCN2C(=O)c3ccccc3Oc3ccccc32)cc1` [N-hydroxy-4-(3-(11-oxodibenzo[b,f][1,4]oxazepin-10(11H)-yl)propyl)benzamide], the IC50 lay in the range of 0.05 to 0.1 µM. On to `O=C(NO)c1ccc(N2C(=O)c3ccccc3Oc3ccccc32)cc1` [N-hydroxy-4-(11-oxodibenzo[b,f][1,4]oxazepin-10(11H)-yl)benzamide], for which the IC50 lay in the range of 0.1 to 1 µM.

In the case of `O=C(NO)c1ccc(Cn2c(-c3ccccc3)cc3ccccc32)cc1` [N-hydroxy-4-((2-phenyl-1H-indol-1-yl)methyl)benzamide], the IC50 was 0.1 to 1 µM. The same measure, in the same setting: as for `O=C(NO)c1ccc(CN2C(=O)c3ccccc3CCc3ccccc32)cc1` [N-hydroxy-4-((6-oxo-11,12-dihydrodibenzo[b,f]azocin-5(6H)-yl)methyl)benzamide], the figure is 0.1 to 1 µM; as for `O=C(NO)c1ccc(Cn2c(=O)c3ccccc3c3ccccc32)cc1` [N-hydroxy-4-((6-oxophenanthridin-5(6H)-yl)methyl)benzamide], less than 0.05 µM. Same read-out and setting: as for `O=C(NO)c1ccc(CN2C(=O)c3ccccc3Oc3ccccc32)cc1` [N-hydroxy-4-((11-oxodibenzo[b,f][1,4]oxazepin-10(11H)-yl)methyl)benzamide], the figure is less than 0.05 µM. For `O=C(CCCCCN1C(=O)c2ccccc2Oc2ccccc21)NO` [N-hydroxy-6-(11-oxodibenzo[b,f][1,4]oxazepin-10(11H)-yl)hexanamide], the IC50 was less than 0.05 µM. On to `O=C(CCCCCCn1c(=O)c2ccccc2c2ccccc21)NO` [N-hydroxy-7-(6-oxophenanthridin-5(6H)-yl)heptanamide], for which the IC50 was less than 0.05 µM.

For the compound `O=C(CCCCCCN1C(=O)c2ccccc2Oc2ccccc21)NO` [N-hydroxy-7-(11-oxodibenzo[b,f][1,4]oxazepin-10(11H)-yl)heptanamide], the concentration for half-maximal inhibition (IC50) is less than 0.05 µM. With `O=C(CCCCCCN1C(=O)c2ccccc2Sc2ccccc21)NO` [N-hydroxy-7-(11-oxodibenzo[b,f][1,4]thiazepin-10(11H)-yl)heptanamide], the IC50 was less than 0.05 µM.

On to `O=C(CCCCCCOc1nc2ccccc2c2ccccc12)NO` [N-hydroxy-7-(phenanthridin-6-yloxy)heptanamide], for which the IC50 was less than 0.05 µM. Still for that read-out and setting: the result for `O=C(CCCCCCCN1C(=O)c2ccccc2Oc2ccccc21)NO` [N-hydroxy-8-(11-oxodibenzo[b,f][1,4]oxazepin-10(11H)-yl)octanamide] reads 0.05 to 0.1 µM; that for `O=C(NO)c1cc2c(cn1)[nH]c1ccccc12` [N-hydroxy-9H-pyrido[3,4-b]indole-3-carboxamide], 1 to 10 µM.

Staying with this experiment, now noted: read-out: HDAC Inhibtion (IC50 μM) HDAC Enzyme.
Turning to `CN1c2ccccc2Oc2ccccc2C1c1ccc(C(=O)NO)cc1` (centres unmarked) [N-hydroxy-4-(10-methyl-10,11-dihydrodibenzo[b,f][1,4]oxazepin-11-yl)benzamide], the IC50 is 0.1 to 1 µM.

In general, IC50 refers to the concentration at which inhibition is half-maximal.
